Minimum inhibitory concentration data for five compounds are collected here from the supplement of paper PMC7029842.

In brackets after ≈: the same amount, converted by molar mass. ± gives the standard deviation of the averaged measurements.

Holding throughout (assay): minimum inhibitory concentration (MIC)
Holding throughout (details): incubation time: 18 h

The test system of assay [1] is Burkholderia cepacia ATCC25416.
For assay [2], the system named is Burkholderia cepacia ISS isolate s12.
Assay [3] relates to Burkholderia cepacia ISS isolate s15.
Assay [4] deals with Burkholderia cepacia ISS isolate s16.
Assay [5] deals with Burkholderia cepacia ISS isolate s18.
The test system of assay [6] is Burkholderia cepacia ISS isolate s20.
Assay [7] relates to Burkholderia cepacia ISS isolate s22.
The test system of assay [8] is Burkholderia cepacia ISS isolate s23.
Assay [9] concerns Burkholderia cepacia ISS isolate s24.
Assay [10] has as its system Burkholderia cepacia ISS isolate s25.
The subject of assay [11] is Burkholderia cepacia ISS isolate s28.
In assay [12] the test system is Burkholderia cepacia ISS isolate s31.
The subject of assay [13] is Burkholderia cepacia ISS isolate s33.
The test system of assay [14] is Burkholderia cepacia ISS isolate s35.
The subject of assay [15] is Burkholderia cepacia ISS isolate s36.
Assay [16] concerns Burkholderia cepacia ISS isolate s37.
The subject of assay [17] is Burkholderia cepacia ISS isolate s39.
Assay [18] concerns Burkholderia cepacia ISS isolate s41.
Assay [19] relates to Burkholderia cepacia ISS isolate s57.
Assay [20] has as its system Burkholderia cepacia ISS isolate s9.
In assay [21] the test system is Burkholderia contaminans ISS isolate s47.
Assay [22] deals with Burkholderia contaminans ISS isolate s52.
The subject of assay [23] is Burkholderia contaminans ISS isolate s53.
Assay [24] concerns Burkholderia contaminans ISS isolate s54.
Assay [25] has as its system Burkholderia contaminans ISS isolate s56.
The test system of assay [26] is Burkholderia contaminans J2956.

As for `CO/N=C(\C(=O)N[C@@H]1C(=O)N2C(C(=O)O)=C(COC(C)=O)CS[C@H]12)c1csc(N)n1` [cefotaxime], the minimum inhibitory concentration is 20.2 ± 9.2 mg/L (≈ 44.3 µM) in assay [1]; 16 ± 12 mg/L (≈ 35.1 µM) in [2]; 16 mg/L (≈ 35.1 µM) in assay [3]; 20.2 ± 9.2 mg/L (≈ 44.3 µM) in assay [4]; 20.2 ± 9.2 mg/L (≈ 44.3 µM) in assay [5]; 20.2 ± 9.2 mg/L (≈ 44.3 µM) in [6]. Also, the minimum inhibitory concentration in assay [7] was 20.2 ± 9.2 mg/L (≈ 44.3 µM); in [8] it was 20.2 ± 9.2 mg/L (≈ 44.3 µM); in assay [9] it was 20.2 ± 9.2 mg/L (≈ 44.3 µM); in [10] it was 12.7 ± 14 mg/L (≈ 27.9 µM); in assay [11], 20.2 ± 9.2 mg/L (≈ 44.3 µM); in assay [12], 25.4 ± 9.2 mg/L (≈ 55.8 µM). Besides, the minimum inhibitory concentration in assay [13] was 20.2 ± 9.2 mg/L (≈ 44.3 µM); in assay [14] it was 16 ± 12 mg/L (≈ 35.1 µM); in assay [15], 16 ± 12 mg/L (≈ 35.1 µM); in assay [16], 20.2 ± 9.2 mg/L (≈ 44.3 µM); in assay [17], 12.7 ± 14 mg/L (≈ 27.9 µM); in assay [18] it was 12.7 ± 14 mg/L (≈ 27.9 µM). The minimum inhibitory concentration was 11.3 ± 5.7 mg/L (≈ 24.8 µM) in [19]; 20.2 ± 9.2 mg/L (≈ 44.3 µM) in assay [20]; above 64 mg/L in assay [21]; above 64 mg/L in [22]; above 64 mg/L in [23]; above 64 mg/L in assay [24]. The minimum inhibitory concentration in assay [25] and in assay [26] was above 64 mg/L in each case.

For `O=C(N[C@H](CO)[C@H](O)c1ccc([N+](=O)[O-])cc1)C(Cl)Cl` [chloramphenicol], the minimum inhibitory concentration in assay [1] was found to be 6.35 ± 2.3 mg/L (≈ 19.7 µM); in assay [2], 7.37 ± 4.2 mg/L (≈ 22.8 µM); in [3] it was 5.04 ± 2.3 mg/L (≈ 15.6 µM); in [4], 9.28 ± 2.6 mg/L (≈ 28.7 µM); in assay [5], 9.28 ± 2.6 mg/L (≈ 28.7 µM); in assay [6], 11.7 ± 9.8 mg/L (≈ 36.2 µM). Moreover, the minimum inhibitory concentration in [7] amounted to 7.37 ± 12 mg/L (≈ 22.8 µM); in assay [9], 9.28 ± 11 mg/L (≈ 28.7 µM); in assay [10], 5.85 ± 4.9 mg/L (≈ 18.1 µM); in [11], 5.85 ± 4.9 mg/L (≈ 18.1 µM); in assay [12], 5.85 ± 4.9 mg/L (≈ 18.1 µM); in [13], 5.04 ± 2.3 mg/L (≈ 15.6 µM). Moreover, the minimum inhibitory concentration in assay [14] was determined as 5.04 ± 2.3 mg/L (≈ 15.6 µM); in [15] it was 8 ± 16 mg/L (≈ 24.8 µM); in assay [16], 5.04 ± 3.5 mg/L (≈ 15.6 µM); in assay [17], 4 ± 3.1 mg/L (≈ 12.4 µM); in [18] it was 4 ± 3.1 mg/L (≈ 12.4 µM); in assay [19], 8 mg/L (≈ 24.8 µM). For the same compound, the minimum inhibitory concentration was determined as 4.64 ± 5.6 mg/L (≈ 14.4 µM) in assay [20]; 5.04 ± 2.3 mg/L (≈ 15.6 µM) in [21]; 8 mg/L (≈ 24.8 µM) in [22]; 8 mg/L (≈ 24.8 µM) in assay [23]; 8 mg/L (≈ 24.8 µM) in assay [24]; 6.35 ± 2.3 mg/L (≈ 19.7 µM) in assay [25]. The minimum inhibitory concentration in [26] worked out at 8 mg/L (≈ 24.8 µM).

Take `C[C@H]1COc2c(N3CCN(C)CC3)c(F)cc3c(=O)c(C(=O)O)cn1c23` [levofloxacin]: the minimum inhibitory concentration in assay [1] amounted to 0.63 ± 0.43 mg/L (≈ 1.74 µM); in assay [3], 1 mg/L (≈ 2.77 µM); in assay [7], 8 ± 6.1 mg/L (≈ 22.1 µM); in assay [8] it was 8 ± 6.1 mg/L (≈ 22.1 µM); in assay [9] it was 10.1 ± 15 mg/L (≈ 27.9 µM); in assay [10] it was 6.35 ± 2.3 mg/L (≈ 17.6 µM). Moreover, the minimum inhibitory concentration in [11] was found to be 10.1 ± 15 mg/L (≈ 27.9 µM); in [12], 8 ± 6.1 mg/L (≈ 22.1 µM); in assay [13], 1 mg/L (≈ 2.77 µM); in assay [14], 1.59 ± 1.7 mg/L (≈ 4.39 µM); in assay [15] it was 1.26 ± 0.87 mg/L (≈ 3.49 µM); in assay [16], 1.26 ± 0.58 mg/L (≈ 3.49 µM). In addition, the minimum inhibitory concentration was 0.63 ± 0.29 mg/L (≈ 1.74 µM) in assay [19]; 6.35 ± 2.3 mg/L (≈ 17.6 µM) in [20]; 0.5 mg/L (≈ 1.38 µM) in assay [21]; 0.5 mg/L (≈ 1.38 µM) in [22]; 0.5 mg/L (≈ 1.38 µM) in assay [23]; 0.315 ± 0.14 mg/L (≈ 0.872 µM) in assay [24]. Moreover, the minimum inhibitory concentration in assay [25] and in [26] was 0.5 mg/L (≈ 1.38 µM) each time.

With `C[C@@H](O)[C@H]1C(=O)N2C(C(=O)O)=C(S[C@@H]3CN[C@H](C(=O)N(C)C)C3)[C@H](C)[C@H]12` [meropenem], the minimum inhibitory concentration in [1] amounted to 16 ± 12 mg/L (≈ 41.7 µM); in [2], 20.2 ± 9.2 mg/L (≈ 52.6 µM); in assay [4], 10.1 ± 6.9 mg/L (≈ 26.3 µM); in assay [5], 12.7 ± 14 mg/L (≈ 33.1 µM); in assay [6], 12.7 ± 14 mg/L (≈ 33.1 µM); in assay [7], 2 ± 1.5 mg/L (≈ 5.22 µM). The minimum inhibitory concentration was 20.2 ± 14 mg/L (≈ 52.6 µM) in [8]; 20.2 ± 14 mg/L (≈ 52.6 µM) in assay [9]; 20.2 ± 9.2 mg/L (≈ 52.6 µM) in [10]; 25.4 ± 9.2 mg/L (≈ 66.2 µM) in [11]; 25.4 ± 9.2 mg/L (≈ 66.2 µM) in [12]; 32 mg/L (≈ 83.4 µM) in [14]. Also, the minimum inhibitory concentration is 32 mg/L (≈ 83.4 µM) in assay [16]; 5.04 ± 2.3 mg/L (≈ 13.1 µM) in assay [19]; 32 mg/L (≈ 83.4 µM) in assay [20]; 4 mg/L (≈ 10.4 µM) in assay [21]; 4 mg/L (≈ 10.4 µM) in [22]; 4 mg/L (≈ 10.4 µM) in [23]. Further, the minimum inhibitory concentration in assay [24] was 4 mg/L (≈ 10.4 µM); in [25], 5.04 ± 2.3 mg/L (≈ 13.1 µM); in assay [26] it was 4 mg/L (≈ 10.4 µM).

Consider `COc1cc(Cc2cnc(N)nc2N)cc(OC)c1OC.Cc1cc(NS(=O)(=O)c2ccc(N)cc2)no1` [trimethoprim/sulfamethoxazole], for which the minimum inhibitory concentration turned out to be 20.2 ± 9.2 mg/L in assay [1]; 12.7 ± 4.6 mg/L in [2]; 25.4 ± 9.2 mg/L in assay [3]; 20.2 ± 14 mg/L in [4]; 12.7 ± 14 mg/L in assay [5]; 25.4 ± 9.2 mg/L in [6]. Moreover, the minimum inhibitory concentration amounted to 20.2 ± 9.2 mg/L in [7]; 25.4 ± 9.2 mg/L in assay [8]; 22.6 ± 11 mg/L in assay [10]; 25.4 ± 9.2 mg/L in [11]; 20.2 ± 9.2 mg/L in [12]; 25.4 ± 9.2 mg/L in [13]. Besides, the minimum inhibitory concentration in assay [14] was determined as 32 mg/L; in [15] it was 32 mg/L; in assay [16] it was 32 mg/L; in assay [17], 20.2 ± 9.2 mg/L; in assay [18] it was 25.4 ± 9.2 mg/L; in assay [19], 16 mg/L. The minimum inhibitory concentration in assay [21] worked out at 8 mg/L; in [22], 6.35 ± 2.3 mg/L; in assay [23], 8 mg/L; in assay [24] it was 6.35 ± 2.3 mg/L; in assay [25], 10.1 ± 4.6 mg/L; in assay [26], 8 mg/L.
